Measured values taken from article PMC6009984, “Synthesis and biological evaluation of benzenesulphonamide-bearing 1,4,5-trisubstituted-1,2,3-triazoles possessing human carbonic anhydrase I, II, IV, and IX inhibitory activity” (Journal of Enzyme Inhibition and Medicinal Chemistry, 2017).

Experiments:
hCA IX = hCA IX (Homo sapiens, UniProt Q16790); assay: stopped-flow CO2 hydrase assay, hCA IX
hCA II = hCA II (Homo sapiens, UniProt P00918); assay: stopped-flow CO2 hydrase assay, hCA II; details: Ki (nM) hCA II, cytosolic isoform; mean from three different assays, stopped flow technique, errors ±5–10%
hCA I = hCA I (Homo sapiens, UniProt P00915); assay: stopped-flow CO2 hydrase assay, hCA I
hCA IV = hCA IV (Homo sapiens, UniProt P22748); assay: stopped-flow CO2 hydrase assay, hCA IV
Sequence of hCA IV (P22748 19-312): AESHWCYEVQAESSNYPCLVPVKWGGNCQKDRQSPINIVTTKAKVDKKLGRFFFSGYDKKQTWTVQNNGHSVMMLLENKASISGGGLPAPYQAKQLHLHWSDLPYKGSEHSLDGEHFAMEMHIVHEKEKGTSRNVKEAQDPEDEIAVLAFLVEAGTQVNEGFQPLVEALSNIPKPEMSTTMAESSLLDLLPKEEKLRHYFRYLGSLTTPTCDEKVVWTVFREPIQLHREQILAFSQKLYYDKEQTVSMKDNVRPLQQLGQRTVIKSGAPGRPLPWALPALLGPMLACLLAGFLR

Sequence of hCA I (P00915 whole entry): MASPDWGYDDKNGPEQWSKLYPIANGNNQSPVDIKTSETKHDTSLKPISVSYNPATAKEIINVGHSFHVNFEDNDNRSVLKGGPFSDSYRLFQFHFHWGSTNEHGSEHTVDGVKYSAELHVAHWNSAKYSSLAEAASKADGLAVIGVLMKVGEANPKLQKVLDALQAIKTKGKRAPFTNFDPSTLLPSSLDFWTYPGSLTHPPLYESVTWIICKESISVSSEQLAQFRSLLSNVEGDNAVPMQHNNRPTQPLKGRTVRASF

Row | Structure (SMILES) | Ki (hCA IX) [nM] | Ki (hCA II) [nM] | Ki (hCA I) [nM] | Ki (hCA IV) [nM] | melting point [°C]
1 | CCOC(=O)c1nnn(-c2ccc(S(N)(=O)=O)cc2)c1C [Compound 4a, Ethyl 1-[4-(aminosulfonyl)phenyl]-5-methyl-1H-1,2,3-triazole-4-carboxylate] | 6.6 | 3.2 | 9.1 | 3.5 | –
2 | CCOC(=O)c1nnn(-c2ccc(S(N)(=O)=O)cc2)c1-c1ccccc1 [Compound 4b, Ethyl 1-[4-(aminosulfonyl)phenyl]-5-phenyl-1H-1,2,3-triazole-4-carboxylate] | 9.5 | 6 | 246 | 5.1 | 184
3 | CCOC(=O)c1nnn(-c2ccc(S(N)(=O)=O)cc2)c1-c1ccc(OC)cc1 [Compound 4c, Ethyl 1-[4-(aminosulfonyl)phenyl]-5-(4-methoxyphenyl)-1H-1,2,3-triazole-4-carboxylate] | 40 | 6.1 | 63 | 4.5 | 176
4 | CCOC(=O)c1nnn(-c2ccc(S(N)(=O)=O)cc2)c1-c1ccc2ccccc2c1 [Compound 4d, Ethyl 1-[4-(aminosulfonyl)phenyl]-5-(2-naphthyl)-1H-1,2,3-triazole-4-carboxylate] | 7.1 | 5.8 | 68.2 | 5 | 180
5 | Cc1c(C(=O)O)nnn1-c1ccc(S(N)(=O)=O)cc1 [Compound 5a, 1-[4-(Aminosulfonyl)phenyl]-5-methyl-1H-1,2,3-triazole-4-carboxylic acid] | 8.5 | 1.6 | 9.6 | 269 | 198
6 | NS(=O)(=O)c1ccc(-n2nnc(C(=O)O)c2-c2ccccc2)cc1 [Compound 5b, 1-[4-(Aminosulfonyl)phenyl]-5-phenyl-1H-1,2,3-triazole-4-carboxylic acid] | 45.9 | 97.9 | 646 | 55.3 | –
7 | COc1ccc(-c2c(C(=O)O)nnn2-c2ccc(S(N)(=O)=O)cc2)cc1 [Compound 5c, 1-[4-(Aminosulfonyl)phenyl]-5-(4-methoxyphenyl)-1H-1,2,3-triazole-4-carboxylic acid] | 42.3 | 9 | 489 | 2.4 | 148 to 150
8 | NS(=O)(=O)c1ccc(-n2nnc(C(=O)O)c2-c2ccc3ccccc3c2)cc1 [Compound 5d, 1-[4-(Aminosulfonyl)phenyl]-5-(2-naphthyl)-1H-1,2,3-triazole-4-carboxylic acid] | 4.2 | 8.9 | 56.2 | 4.1 | 198 to 200
9 | Cc1c(C(N)=O)nnn1-c1ccc(S(N)(=O)=O)cc1 [Compound 6a, 1-[4-(Aminosulfonyl)phenyl]-5-methyl-1H-1,2,3-triazole-4-carboxamide] | 9.5 | 1.9 | 8.3 | 212 | 314 to 316
10 | NC(=O)c1nnn(-c2ccc(S(N)(=O)=O)cc2)c1-c1ccccc1 [Compound 6b, 1-[4-(Aminosulfonyl)phenyl]-5-phenyl-1H-1,2,3-triazole-4-carboxamide] | 28.3 | 9.1 | 69.1 | 1.4 | 210
11 | COc1ccc(-c2c(C(N)=O)nnn2-c2ccc(S(N)(=O)=O)cc2)cc1 [Compound 6c, 1-[4-(Aminosulfonyl)phenyl]-5-(4-methoxyphenyl)-1H-1,2,3-triazole-4-carboxamide] | 6.8 | 6.2 | 874 | 1.7 | 280 to 282
12 | NC(=O)c1nnn(-c2ccc(S(N)(=O)=O)cc2)c1-c1ccc2ccccc2c1 [Compound 6d, 1-[4-(Aminosulfonyl)phenyl]-5-(2-naphthyl)-1H-1,2,3-triazole-4-carboxamide] | 6.7 | 6 | 772 | 4 | 278 to 280
13 | Cc1c(C(=O)NN)nnn1-c1ccc(S(N)(=O)=O)cc1 [Compound 7a, 4-[4-(Hydrazinocarbonyl)-5-methyl-1H-1,2,3-triazol-1-yl]benzenesulphonamide] | 9.3 | 7.6 | 15.1 | 228 | –
14 | NNC(=O)c1nnn(-c2ccc(S(N)(=O)=O)cc2)c1-c1ccccc1 [Compound 7b, 4-[4-(Hydrazinocarbonyl)-5-phenyl-1H-1,2,3-triazol-1-yl]benzenesulphonamide] | 26.1 | 38 | 73.7 | 22.7 | 206
15 | COc1ccc(-c2c(C(=O)NN)nnn2-c2ccc(S(N)(=O)=O)cc2)cc1 [Compound 7c, 4-[4-(Hydrazinocarbonyl)-5-(4-methoxyphenyl)-1H-1,2,3-triazol-1-yl]benzenesulphonamide] | 8.1 | 5.6 | 91.2 | 4 | 170 to 172
16 | NNC(=O)c1nnn(-c2ccc(S(N)(=O)=O)cc2)c1-c1ccc2ccccc2c1 [Compound 7d, 4-[4-(Hydrazinocarbonyl)-5-(2-naphthyl)-1H-1,2,3-triazol-1-yl]benzenesulphonamide] | 7.2 | 1.6 | 82.5 | 2 | 156
17 | Cc1c(CO)nnn1-c1ccc(S(N)(=O)=O)cc1 [Compound 8a, 4-(4-(Hydroxymethyl)-5-methyl-1H-1,2,3-triazol-1-yl)benzenesulphonamide] | 30.6 | 58.9 | 354 | 360 | 184
18 | NS(=O)(=O)c1ccc(-n2nnc(CO)c2-c2ccccc2)cc1 [Compound 8b, 4-(4-(Hydroxymethyl)-5-phenyl-1H-1,2,3-triazol-1-yl)benzenesulphonamide] | 58.7 | 9.4 | 78.9 | 8.4 | 174 to 176
19 | COc1ccc(-c2c(CO)nnn2-c2ccc(S(N)(=O)=O)cc2)cc1 [Compound 8c, 4-(4-(Hydroxymethyl)-5-(4-methoxyphenyl)-1H-1,2,3-triazol-1-yl)benzenesulphonamide] | 5.8 | 4 | 812 | 1.9 | 180 to 182
20 | NS(=O)(=O)c1ccc(-n2nnc(CO)c2-c2ccc3ccccc3c2)cc1 [Compound 8d, 4-(4-(Hydroxymethyl)-5-(2-naphthyl)-1H-1,2,3-triazol-1-yl)benzenesulphonamide] | 7.8 | 8.1 | 214 | 1.9 | 212 to 214
